# Source: patent US20210401931A1, “METHODS AND MATERIALS FOR TREATING CANCER” (Mayo Foundation for Medical Education and Research, priority 2018, published 2021)
# Ends that are not written are not given here.
# Columns and labels:
# [1] = tested on: PTEN-CaP8 tumors; test: PTEN-CaP8 mice tumor model, tumor growth; assay type: in vivo, mouse; details: C57BL/6 mice, s.c. PTEN-CaP8 tumors
# Experimental: FIGS. 6A-J. The small S249/T252 phosphorylation-mimicking polypeptide of RB blocks irradiation-induced PD-L1 expression and inhibits cancer immune evasion. (A, B) PC-3 cells were infected with lentivirus expressing control shRNA or p65-specific or shRNA. 24 hours after puromycin selection, cells were treated with or without gamma irradiation (IR) (12 Gy). 48 hours after IR treatment, cells were harvested for western blotting analysis (A) and RT-qPCR analysis (B). All data were shown as mean values±SD (n=3). * P<0.05, ** P<0.01, *** P<0.001. (C, D) PC-3 cells were treated with without gamma irradiation (12 Gy). Cells were harvested at the indicated time point for western blotting analysis (C) and RT-qPCR analysis (D). All data were shown as mean values±SD (n=3). * P<0.05, ** P<0.01, *** P<0.001. (E) Western blot analysis of WCL and co-IP samples in PC-3 cells 48 hours after treated with or without gamma irradiation (12 Gy). […] (J) The absolute number of CD45^+CD8^+ T cells, CD45^+CD4^+ T cells, and CD11b^+Gr1^+ myeloid cells of implanted PTEN-CaP8 in tumors treated with indicated agents was analyzed by FACS. […]
# 6-week-old C57BL/6 mice (Jackson Lab) were used for animal experiments. […] The volume of xenografts was measured every other day and calculated using the formula L×W2×0.5. […]
# [2] = tested on: PD-L1; test: PD-L1 expression in cell lines of other cancer types (PANC-1, H1299, SK-Hep1) expressing RL peptide; assay type: cell-based, human; details: listed as RL-S249/T252D peptide
# Experimental: FIGS. 12A-C. (A, B) PANC-1, H1299, and SK-Hep1 were infected with lentivirus expressing control or RB-specific shRNAs following puromycin selection. 48 hours post infection, cells were transfected with indicated construct. 24 hours after transfection, cells were harvested for western blotting (A) and RT-qPCR (B). All data were shown as mean values±SD (n=3). “ns”=not significant, *** P<0.001. (C) Western blot analysis of expression of PD-L1, RB, pRB-S249/T252, pRB-5795, and ERK2 in prostate cancer cell lines indicated.
# Total RNA was isolated using TRIzol reagent (Thermo Fisher Scientific). The NanoDrop 2000 spectrophotometer (Thermo Fisher Scientific) was used to assess RNA yield and quality. RNA was reversely transcribed using Superscript reverse transcriptase (Thermo Fisher Scientific) following manufacturer's instructions. Quantitative real-time PCR was performed by mixing cDNA, gene-specific primers, and IQ SYRB Green Supermix and detected by iCycler QTX detection system (Bio-Rad). The 2-ΔCt method was used to quantitate fold changes by normalizing to GAPDH. Primers for RT-qPCR are provided Table 4.
# Cells were harvested and lysed by IP buffer, and the supernatant was quantified by BCA protein quantification assay. Equal amounts of protein sample were added into 4× sample buffer and boiled for 5 minutes. […]
substance,measurement,setting,value
"RL-S249D/T252D: S249/T252 phospho-mimicking R-Linker (RL) peptide: fragment of RB-N containing 21 amino acids surrounding S249/T252, expressed SFB-tagged or by lentivirus (NGDPRDPRRGQNRSARIAKQL; also: expressed SFB-tagged (tag left off))","tumor growth, agent combined with gamma irradiation",[1]; 12 Gy,tumors regressed
same,"tumor growth, agent without irradiation",[1]; anti-PD-L1 200 μg or lentiviral peptide expression,markedly inhibited
same,PD-L1 expression in cell lines of other cancer types,[2],inhibited
